Drawing on patent US6638973B2, “Taxane formulations” (FSU Research Foundation, Inc., priority 2000, dated 2003), this text covers IC50 for 24 molecules.

Structures are written as SMILES.

In the first assay the test system is HCT116 cells. The assay is described as follows: In vitro cytotoxicity measured by the cell colony formation assay. The assay is classed as cell-based. The following applies: HCT116 cells, 72 h drug incubation, colonies counted after 7 days; ID50 = drug concentration producing 50% inhibition of colony formation; read-out: IN VITRO ID 50 (nm) HCT116. The method, then: (§1) Four hundred cells (HCT116) were plated in 60 mm Petri dishes containing 2.7 mL of medium (modified McCoy's 5a medium containing 10% fetal bovine serum and 100 units/mL penicillin and 100 µg/mL streptomycin). The cells were incubated in a CO2 incubator at 37° C. for 5 h for attachment to the bottom of Petri dishes. The compounds identified in Example 2 were made up fresh in medium at ten times the final concentration, and then 0.3 mL of this stock solution was added to the 2.7 mL of medium in the dish. The cells were then incubated with drugs for 72 h at 37° C. At the end of incubation the drug-containing media were decanted, the dishes were rinsed with 4 mL of Hank's Balance Salt Solution (HBSS), 5 mL of fresh medium was added, and the dishes were returned to the incubator for colony formation. The cell colonies were counted using a colony counter after incubation for 7 days.
as §1, with “Example 7” for “Example 2”
as §1, with “Example 22” for “Example 2”
as §1, with “Example 27” for “Example 2”
Four hundred cells (HCT116) were plated in 60 mm Petri dishes containing 2.7 mL of medium (modified McCoy's 5a medium containing 10% fetal bovine serum and 100 units/mL penicillin and 100 µg/mL streptomycin). The cells were incubated in a CO2 incubator at 37° C. for 5 h for attachment to the bottom of Petri dishes. […]
`CCNC(=O)O[C@H]1C[C@H]2OC[C@@]2(OC(C)=O)C2[C@H](OC(=O)c3ccccc3)[C@]3(O)C[C@H](OC(=O)[C@H](O)[C@@H](NC(=O)OC(C)(C)C)c4ccco4)C(C)=C([C@@H](O)C(=O)[C@@]21C)C3(C)C` (stereo partly drawn) [Compound 6696]: the IC50 is less than 1 nM.

The assay is the same for the next values; noted with them: HCT116 cells, 72 h incubation with drug, colonies counted after 7 days; ID50 = drug concentration producing 50% inhibition of colony formation; read-out: IN VITRO ID 50 (nm) HCT116.
For `CCOC(=O)O[C@H]1C[C@H]2OC[C@@]2(OC(C)=O)C2[C@H](OC(=O)c3ccccc3)[C@]3(O)C[C@H](OC(=O)[C@H](O)[C@@H](NC(=O)c4ccco4)c4cccs4)C(C)=C([C@@H](O)C(=O)[C@@]21C)C3(C)C` (stereo partly drawn) [Compound 4304], the IC50 was less than 10 nM.

For `CCOC(=O)O[C@H]1C[C@H]2OC[C@@]2(OC(C)=O)C2[C@H](OC(=O)c3ccccc3)[C@]3(O)C[C@H](OC(=O)[C@H](O)[C@@H](NC(=O)OC(C)C)c4cccs4)C(C)=C([C@@H](O)C(=O)[C@@]21C)C3(C)C` (stereo partly drawn) [Compound 4151], the IC50 was less than 1 nM.

In the case of `CCOC(=O)O[C@H]1C[C@H]2OC[C@@]2(OC(C)=O)C2[C@H](OC(=O)c3ccccc3)[C@]3(O)C[C@H](OC(=O)[C@H](O)[C@@H](NC(=O)OC(C)(C)C)c4ccoc4)C(C)=C([C@@H](O)C(=O)[C@@]21C)C3(C)C` (stereo partly drawn) [Compound 4464], the IC50 is less than 1 nM.

In the case of `COC(=O)O[C@H]1C[C@H]2OC[C@@]2(OC(C)=O)C2[C@H](OC(=O)c3ccccc3)[C@]3(O)C[C@H](OC(=O)[C@H](O)[C@@H](NC(=O)OC(C)C)c4cccs4)C(C)=C([C@@H](O)C(=O)[C@@]21C)C3(C)C` (stereo partly drawn) [Compound 4144], the IC50 is less than 1 nM.

As for `COC(=O)O[C@H]1C[C@H]2OC[C@@]2(OC(C)=O)C2[C@H](OC(=O)c3ccccc3)[C@]3(O)C[C@H](OC(=O)[C@H](O)[C@@H](NC(=O)OC(C)(C)C)c4ccsc4)C(C)=C([C@@H](O)C(=O)[C@@]21C)C3(C)C` (stereo partly drawn) [Compound 4444], the IC50 is less than 1 nM.

Regarding `CC(=O)O[C@H]1C[C@H]2OC[C@@]2(OC(C)=O)C2[C@H](OC(=O)c3ccccc3)[C@]3(O)C[C@H](OC(=O)[C@H](O)[C@@H](NC(=O)OCC(C)C)c4ccsc4)C(C)=C([C@@H](O)C(=O)[C@@]21C)C3(C)C` (stereo partly drawn) [Compound 4515], the IC50 is less than 10 nM.

On to `COC(=O)O[C@H]1C[C@H]2OC[C@@]2(OC(C)=O)C2[C@H](OC(=O)c3ccccc3)[C@]3(O)C[C@H](OC(=O)[C@H](O)[C@H](C=C(C)C)NC(=O)OC(C)(C)C)C(C)=C([C@@H](O)C(=O)[C@@]21C)C3(C)C` (stereo partly drawn) [Compound 4484], for which the IC50 is less than 1 nM.

On to `COC(=O)O[C@H]1C(=O)[C@@]2(C)C([C@H](OC(=O)c3ccccc3)[C@]3(O)C[C@H](OC(=O)[C@H](O)[C@H](C=C(C)C)NC(=O)OC(C)(C)C)C(C)=C1C3(C)C)[C@]1(OC(C)=O)CO[C@@H]1C[C@@H]2O` (stereo partly drawn) [Compound 1999], for which the IC50 was less than 1 nM.

For the molecule `CCOC(=O)O[C@H]1C(=O)[C@@]2(C)C([C@H](OC(=O)c3ccccc3)[C@]3(O)C[C@H](OC(=O)[C@H](O)[C@@H](NC(=O)c4cccs4)c4cccs4)C(C)=C1C3(C)C)[C@]1(OC(C)=O)CO[C@@H]1C[C@@H]2O` (stereo partly drawn) [Compound 3020], the IC50 was less than 1 nM.

The same assay, now with this note: HCT116 colony formation; 72 h drug incubation, colonies counted after 7 days; Example 5, C-7 ester/C-10 hydroxy taxanes; read-out: IN VITRO ID 50 (nm) HCT116.
Consider `CCC(=O)O[C@H]1C[C@H]2OC[C@@]2(OC(C)=O)C2[C@H](OC(=O)c3ccccc3)[C@]3(O)C[C@H](OC(=O)[C@H](O)[C@@H](NC(=O)OC(C)(C)CC)c4ccco4)C(C)=C([C@@H](O)C(=O)[C@@]21C)C3(C)C` (stereo partly drawn) [Compound 6424], for which the IC50 amounted to 21.7 nM.

Consider `CCCC(=O)O[C@H]1C[C@H]2OC[C@@]2(OC(C)=O)C2[C@H](OC(=O)c3ccccc3)[C@]3(O)C[C@H](OC(=O)[C@H](O)[C@@H](NC(=O)c4cccs4)c4cccs4)C(C)=C([C@@H](O)C(=O)[C@@]21C)C3(C)C` (stereo partly drawn) [Compound 4388], for which the IC50 was less than 1 nM.

Still in this assay, the particulars now being: HCT116 colony formation; 72 h drug incubation, colonies counted after 7 days; Example 10, C-10 ester/C-7 hydroxy taxanes; read-out: IN VITRO ID 50 (nm) HCT116.
With `CCCC(=O)N[C@@H](c1cccs1)[C@@H](O)C(=O)O[C@H]1C[C@@]2(O)[C@@H](OC(=O)c3ccccc3)C3[C@](C)(C(=O)[C@H](OC(=O)C4CC4)C(=C1C)C2(C)C)[C@@H](O)C[C@H]1OC[C@@]31OC(C)=O` (stereo partly drawn) [Compound 3132], the IC50 was less than 1 nM.

Turning to `CC(=O)OC12COC1CC(O)C1(C)C(=O)C(OC(=O)c3ccco3)C3=C(C)C(OC(=O)C(O)C(NC(=O)OC(C)(C)C)c4ccccc4)CC(O)(C(OC(=O)c4ccccc4)C21)C3(C)C` (stereo not drawn) [Compound 2212], the IC50 is less than 10 nM.

Take `CC(=O)O[C@@]12CO[C@@H]1C[C@H](O)[C@@]1(C)C(=O)[C@H](OC(=O)C(C)C)C3=C(C)[C@@H](OC(=O)[C@H](O)[C@@H](NC(=O)OC(C)(C)C)c4ccsc4)C[C@@](O)([C@@H](OC(=O)c4ccccc4)C12)C3(C)C` (stereo partly drawn) [Compound 2291]: the IC50 was less than 1 nM.

On to `CCC(=O)O[C@H]1C(=O)[C@@]2(C)C([C@H](OC(=O)c3ccccc3)[C@]3(O)C[C@H](OC(=O)[C@H](O)[C@@H](NC(=O)c4ccccc4)c4ccncc4)C(C)=C1C3(C)C)[C@]1(OC(C)=O)CO[C@@H]1C[C@@H]2O` (stereo partly drawn) [Compound 0659], for which the IC50 is less than 1 nM.

As to `CCCC(=O)O[C@H]1C(=O)[C@@]2(C)C([C@H](OC(=O)c3ccccc3)[C@]3(O)C[C@H](OC(=O)[C@H](O)[C@@H](NC(=O)c4cccs4)c4cccs4)C(C)=C1C3(C)C)[C@]1(OC(C)=O)CO[C@@H]1C[C@@H]2O` (stereo partly drawn) [Compound 3408], the IC50 is less than 1 nM.

Regarding `CCC(=O)O[C@H]1C(=O)[C@@]2(C)C([C@H](OC(=O)c3ccccc3)[C@]3(O)C[C@H](OC(=O)[C@H](O)[C@H](C=C(C)C)NC(=O)OCC(C)C)C(C)=C1C3(C)C)[C@]1(OC(C)=O)CO[C@@H]1C[C@@H]2O` (stereo partly drawn) [Compound 5065], the IC50 is less than 10 nM.

For `CC(=O)O[C@@]12CO[C@@H]1C[C@H](O)[C@@]1(C)C(=O)[C@H](OC(=O)C3CC3)C3=C(C)[C@@H](OC(=O)[C@H](O)[C@@H](NC(=O)OC(C)(C)C)c4cccs4)C[C@@](O)([C@@H](OC(=O)c4ccccc4)C12)C3(C)C` (stereo partly drawn) [Compound 0854], the IC50 was less than 1 nM.

Turning to `CC(=O)OC12COC1CC(O)C1(C)C(=O)C(OC(=O)c3cccs3)C3=C(C)C(OC(=O)C(O)C(NC(=O)OC(C)(C)C)c4cccs4)CC(O)(C(OC(=O)c4ccccc4)C21)C3(C)C` (stereo not drawn) [Compound 1900], the IC50 is less than 1 nM.

Take `CCC(=O)O[C@H]1C(=O)[C@@]2(C)C([C@H](OC(=O)c3ccccc3)[C@]3(O)C[C@H](OC(=O)[C@H](O)[C@@H](NC(=O)c4ccccc4)c4ccc([N+](=O)[O-])cc4)C(C)=C1C3(C)C)[C@]1(OC(C)=O)CO[C@@H]1C[C@@H]2O` (stereo partly drawn) [Compound 0732]: the IC50 was less than 10 nM.

Regarding `CCC(=O)O[C@H]1C(=O)[C@@]2(C)C([C@H](OC(=O)c3ccccc3)[C@]3(O)C[C@H](OC(=O)[C@H](O)[C@@H](NC(=O)OC(C)(C)C)c4ccccc4)C(C)=C1C3(C)C)[C@]1(OC(C)=O)CO[C@@H]1C[C@@H]2O` (stereo partly drawn) [Compound 0611], the IC50 is less than 10 nM.

As for `CCC(=O)O[C@H]1C(=O)[C@@]2(C)C([C@H](OC(=O)c3ccccc3)[C@]3(O)C[C@H](OC(=O)[C@H](O)[C@@H](NC(=O)c4ccccc4)c4ccoc4)C(C)=C1C3(C)C)[C@]1(OC(C)=O)CO[C@@H]1C[C@@H]2O` (stereo partly drawn) [Compound 0670], the IC50 is less than 1 nM.

As for `CC(=O)O[C@@]12CO[C@@H]1C[C@H](O)[C@@]1(C)C(=O)[C@H](OC(=O)C3CC3)C3=C(C)[C@@H](OC(=O)[C@H](O)[C@@H](NC(=O)OC(C)(C)C)c4ccc([N+](=O)[O-])cc4)C[C@@](O)([C@@H](OC(=O)c4ccccc4)C12)C3(C)C` (stereo partly drawn) [Compound 0879], the IC50 is less than 1 nM.
